In PMC10780275, “Evaluation of Anti-Trypanosoma cruzi Activity of Chemical Constituents from Baccharis sphenophylla Isolated Using High-Performance Countercurrent Chromatography” (Molecules, 2023):
Where two headings read alike, the source gives them in different places.

What was measured:
T. cruzi amastigote = experiment: Activity against intracellular amastigotes of T. cruzi within infected macrophages (Giemsa, light microscope, 48 h); type: cell-based, Trypanosoma cruzi (Y strain); conditions: for EC50: Trypanosoma cruzi, Peritoneal macrophage, in Mus musculus, read-out: T. cruzi Amastigote EC50 (μM) ± SD
Description: The experimental animals were sourced from the animal breeding facility located at Instituto Adolfo Lutz in São Paulo State, Brazil. Peritoneal macrophages were extracted from female BALB/c mice for intracellular experiments, while male BALB/c mice were utilized to sustain T. cruzi. These animals were provided unlimited access to both water and food, residing in sterilized enclosures within a meticulously regulated environment. All procedures were previously approved by the Animal Ethics Commission of Instituto Adolfo Lutz.
(§1) NCTC cells (clone 929, ATCC) were cultured in RPMI-1640 supplemented with 10% of fetal bovine serum (FBS), at 37 °C within a 5% CO2-humidified incubator. To collect peritoneal macrophages, the abdominal cavity of female BALB/c mice was rinsed with an RPMI-1640 medium, containing 10% FBS. These macrophages were then cultured overnight at 37 °C in a 5% CO2-humidified incubator. Trypanosoma cruzi trypomastigotes (Y strain) were maintained within Rhesus monkey kidney epithelial cells (LLC-MK2) cells using an RPMI-1640 medium supplemented with 2% FBS, and the incubation took place at 37 °C with 5% CO2 and humidity.
The EC50 values for compounds 1–8 against intracellular amastigotes of T. cruzi were determined within infected macrophages. Macrophages, obtained as detailed in item 4.9, were seeded onto a 16-well chamber slide (NUNC plate, Thermo Fisher, Waltham, MA, USA) at a density of 1 × 10^5 cells per well. Subsequently, these cell cultures were incubated overnight at 37 °C in a humidified incubator containing 5% CO2. Trypomastigotes, previously derived from infected LLC-MK2 cells, underwent washing in an RPMI-1640 medium, were quantified, and were then employed to infect the macrophages at a concentration of 1 × 10^6 trypomastigotes per well. Following a 2 h infection period, any non-internalized trypomastigotes were eliminated by rinsing with an RPMI medium. The compounds were subsequently exposed to the infected macrophages for 48 h at 37 °C within a 5% CO2 environment. A range of serial dilutions (ranging from 30.00 to 1.87 μM) were used for the incubation of compounds, and benznidazole was utilized as the standard drug. At the final stage of the experiment, the chamber slides were fixed using MeOH and stained with Giemsa before being assessed under a light microscope (Thermo EVOS M5000).
(§2) The CC50 and EC50 values were derived through the analysis of sigmoidal dose–response curves using GraphPad Prism 6.0 software. The samples were subjected to duplicate testing, and the experiments were replicated a minimum of two times.

[1] = Cytotoxicity against mammalian NCTC cells (MTT assay, 48 h); type: cell-based; conditions: mouse, NCTC murine fibroblasts, highest tested concentration 200 μM, read-out: NCTC Mammalian Cell CC50 (μM) ± SD
Method: as §1
The determination of CC50 (50% cytotoxic concentration) values for compounds 1–8 was conducted using NCTC cells (L929 clone). These cells were seeded at a density of 6 × 10^4 cells per well in 96-well plates (Thermo Fisher). The cells were then exposed to a series of compound dilutions, ranging from 200 to 1.56 µM, and incubated for 48 h at 37 °C within a 5% CO2-equipped incubator. The viability of the cells and CC50 values were determined using 3-(4,5-dimethylthiazol-2-yl)-2,5-diphenyltetrazolium bromide (MTT) assay. Subsequently, the absorbance was measured at 570 nm using the FilterMax F5 instrument from Molecular Devices. The selectivity index (SI) was determined as the ratio between the CC50 against NCTC cells and the EC50 against trypomastigotes or amastigotes.
as §2

T. cruzi trypomastigote = experiment: Activity against trypomastigote forms of T. cruzi (resazurin viability, 24 h); type: cell-based, Trypanosoma cruzi (Y strain); conditions: trypomastigotes, serial dilutions 1.7 to 150 μM; for EC50: Trypanosoma cruzi, read-out: T. cruzi Trypomastigote EC50 (μM) ± SD
Method: as §1
Tests of the activity from compounds 1–8 against the trypomastigote form of T. cruzi was performed, according to procedures previously reported. Trypomastigotes, in a concentration of 1 × 10^6 parasites/well, were seeded in 96-well plates and incubated with the tested compounds, alongside the standard drug benznidazole, in serial dilutions ranging from 1.7 to 150 μM, for 24 h at 37 °C in a 5% CO2 incubator. Subsequently, 20 μL of 10% resazurin was added, in order to determine cell viability. Absorbance was read in a plate spectrofluorometer Filter Max F5 Multi-Mode Microplate Reader at 570 nm. Untreated cells were used as negative controls, and cells treated with benznidazole were used as positive controls. The 50% effective concentration (EC50) against trypomastigote forms was determined by the regression of a sigmoid dose–response curve expressed in μM.
as §2

[2] = intracellular amastigotes in BALB/c peritoneal macrophages, serial dilutions 30.00 to 1.87 μM
[3] = NCTC cells (clone L929) fibroblasts

Row | SMILES | T. cruzi Amastigote EC50 (μM) ± SD (T. cruzi amastigote; [2]) | CC50 at 48 h [1, 3] [µM] | EC50 (T. cruzi trypomastigote) [µM] | EC50 (T. cruzi amastigote; [2]) [µM] | CC50 at 48 h [1] [µM] | EC50 (T. cruzi amastigote) [µM] | T. cruzi Trypomastigote EC50 (μM) ± SD (T. cruzi trypomastigote)
1 | COC1C[C@@H](CC[C@@H]2[C@@H](C)CC=C3C(CO)(CO)CCC[C@@]32C)CO1 (relative stereo) [Compound 1, 15,16-epoxy-18,19-dihydroxy-16-methoxy-syn-labd-5-ene] | inactive | > 200 | 20.1 ± 1.5 | – | – | – | –
2 | O=C(Cn1ccnc1[N+](=O)[O-])NCc1ccccc1 [Benznidazole, benznidazole, reference compound] | – | > 200 | 18.7 ± 4.1 | 5.5 ± 2.2 | – | – | –
3 | C[C@H]1CC=C2C(CO)(CO)CCC[C@]2(C)[C@@H]1CC[C@H](CCO)COC(=O)/C=C/c1ccc(O)cc1 [Compound 2, gaudichaudol C] | inactive | > 200 | 2.9 ± 1.5 | – | – | – | –
4 | C=C1C[C@@]23CC[C@H]4[C@@](C)(CCC[C@@]4(C)C(=O)O)[C@@H]2CC[C@@H]1C3 [Compound 3, Ent-kaur-16-en-19-oic acid] | inactive | – | 10.6 ± 4.4 | – | > 200 | – | –
5 | COc1c(O)cc2oc(-c3ccc(O)cc3)cc(=O)c2c1O [Compound 4, Hispidulin] | – | – | – | – | > 200 | 12.8 ± 0.3 | no activity
6 | COc1c(O)cc2oc(-c3ccc(O)c(O)c3)cc(=O)c2c1O [Compound 5, Eupafolin] | – | – | – | 2.7 ± 0.2 | – | – | no activity
